# Literature values as cited in patent publication US11840582B2, “Synthesis method of cyclosporine derivatives” (Peking University Shenzhen Graduate School, priority 2021, dated 2023).
# Non-standard residues stand in square brackets, D forms with d. Residues, ends and D or L forms follow the SMILES beside them. NMeThr(4R-Me,4-(CH2)6NHAc) = CN[C@H](C(=O)O)[C@H](O)[C@H](C)CCCCCCNC(C)=O; NMeL = CN[C@@H](CC(C)C)C(=O)O; NMeV = CN[C@H](C(=O)O)C(C)C; dNMeA = CN[C@H](C)C(=O)O; Abu = CC[C@H](N)C(=O)O
# System: cyclophilin proteins (CyP), including cyclophilin protein A, cyclophilin protein B, cyclophilin protein H and cyclophilin protein G
smiles,measurement,value
"CC[C@@H]1NC(=O)[C@H]([C@H](O)[C@H](C)CCCCCCNC(C)=O)N(C)C(=O)[C@H](C(C)C)N(C)C(=O)[C@H](CC(C)C)N(C)C(=O)[C@H](CC(C)C)N(C)C(=O)[C@@H](C)NC(=O)[C@H](C)NC(=O)[C@H](CC(C)C)N(C)C(=O)[C@H](C(C)C)NC(=O)[C@H](CC(C)C)N(C)C(=O)[C@@H](C)N(C)C1=O [CRV431] (cyclo(A[dA][NMeL][NMeL][NMeV][NMeThr(4R-Me,4-(CH2)6NHAc)][Abu][dNMeA][NMeL]V[NMeL]))",IC50,1 to 7 nM
same,potency relative to cyclosporine A inhibiting the activity of cyclophilin protein,≤ 13 times
